Assay results from patent US11130756B2, “[1,2,4]Triazolo[4,3-A]pyridinyl substituted indole compounds” (BRISTOL-MYERS SQUIBB COMPANY, priority 2017, dated 2021).

Assays:
Assay type in all cases: cell-based
[1] = biological target: T1, human TLR7 (Homo sapiens, UniProt Q9NYK1); assay: TLR7 inhibition reporter assay (HEK-Blue, SEAP); conditions: HEK-Blue cells overexpressing human TLR7, gardiquimod 7.5 μM, 22 hour incubation
T1 construct: host or cells: HEK-Blue cells
T1 sequence (Q9NYK1 27-1049): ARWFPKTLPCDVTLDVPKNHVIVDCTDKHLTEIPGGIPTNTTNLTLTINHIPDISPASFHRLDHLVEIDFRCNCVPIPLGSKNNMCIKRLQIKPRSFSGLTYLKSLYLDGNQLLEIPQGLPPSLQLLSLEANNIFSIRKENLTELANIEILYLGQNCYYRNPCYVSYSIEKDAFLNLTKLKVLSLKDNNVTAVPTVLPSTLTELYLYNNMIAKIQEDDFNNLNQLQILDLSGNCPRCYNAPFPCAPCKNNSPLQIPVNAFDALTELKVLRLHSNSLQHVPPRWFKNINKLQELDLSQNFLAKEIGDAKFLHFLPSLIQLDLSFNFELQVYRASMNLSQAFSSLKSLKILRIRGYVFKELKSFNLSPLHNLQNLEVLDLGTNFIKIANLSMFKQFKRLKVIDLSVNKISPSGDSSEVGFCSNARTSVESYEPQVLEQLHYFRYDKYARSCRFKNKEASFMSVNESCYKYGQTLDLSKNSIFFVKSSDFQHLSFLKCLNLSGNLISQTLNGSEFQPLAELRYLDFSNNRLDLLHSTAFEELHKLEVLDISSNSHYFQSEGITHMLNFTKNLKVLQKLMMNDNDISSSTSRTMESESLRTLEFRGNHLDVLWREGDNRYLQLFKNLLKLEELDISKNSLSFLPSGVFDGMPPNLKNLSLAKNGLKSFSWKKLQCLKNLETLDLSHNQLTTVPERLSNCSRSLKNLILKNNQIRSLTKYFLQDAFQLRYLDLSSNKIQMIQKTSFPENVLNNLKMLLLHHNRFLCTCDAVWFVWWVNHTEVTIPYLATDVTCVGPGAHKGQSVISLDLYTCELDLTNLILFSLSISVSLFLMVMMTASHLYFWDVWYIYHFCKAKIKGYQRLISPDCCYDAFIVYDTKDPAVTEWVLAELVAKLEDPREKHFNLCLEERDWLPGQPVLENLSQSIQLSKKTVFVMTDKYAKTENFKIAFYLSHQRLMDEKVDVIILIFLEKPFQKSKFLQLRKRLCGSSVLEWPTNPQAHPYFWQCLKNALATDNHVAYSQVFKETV
Method in brief: (§1)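 Dose–response from 0.05 nM to 50 μM was run in HEK-Blue human TLR7, TLR8 and TLR9 reporter cells. After 30 min at room temperature with compound, ligand was added (TLR7 gardiquimod 7.5 μM; TLR8 R848 15.9 μM; TLR9 ODN2006 5 nM) and SEAP measured next day, at 22 h.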

[2] = biological target: T2, human TLR9 (Homo sapiens, UniProt Q9NR96); assay: TLR9 inhibition reporter assay (HEK-Blue, SEAP); conditions: HEK-Blue cells overexpressing human TLR9, ODN2006 5 nM, 22 hour incubation
T2 construct: host or cells: HEK-Blue cells
T2 sequence (Q9NR96 26-1032): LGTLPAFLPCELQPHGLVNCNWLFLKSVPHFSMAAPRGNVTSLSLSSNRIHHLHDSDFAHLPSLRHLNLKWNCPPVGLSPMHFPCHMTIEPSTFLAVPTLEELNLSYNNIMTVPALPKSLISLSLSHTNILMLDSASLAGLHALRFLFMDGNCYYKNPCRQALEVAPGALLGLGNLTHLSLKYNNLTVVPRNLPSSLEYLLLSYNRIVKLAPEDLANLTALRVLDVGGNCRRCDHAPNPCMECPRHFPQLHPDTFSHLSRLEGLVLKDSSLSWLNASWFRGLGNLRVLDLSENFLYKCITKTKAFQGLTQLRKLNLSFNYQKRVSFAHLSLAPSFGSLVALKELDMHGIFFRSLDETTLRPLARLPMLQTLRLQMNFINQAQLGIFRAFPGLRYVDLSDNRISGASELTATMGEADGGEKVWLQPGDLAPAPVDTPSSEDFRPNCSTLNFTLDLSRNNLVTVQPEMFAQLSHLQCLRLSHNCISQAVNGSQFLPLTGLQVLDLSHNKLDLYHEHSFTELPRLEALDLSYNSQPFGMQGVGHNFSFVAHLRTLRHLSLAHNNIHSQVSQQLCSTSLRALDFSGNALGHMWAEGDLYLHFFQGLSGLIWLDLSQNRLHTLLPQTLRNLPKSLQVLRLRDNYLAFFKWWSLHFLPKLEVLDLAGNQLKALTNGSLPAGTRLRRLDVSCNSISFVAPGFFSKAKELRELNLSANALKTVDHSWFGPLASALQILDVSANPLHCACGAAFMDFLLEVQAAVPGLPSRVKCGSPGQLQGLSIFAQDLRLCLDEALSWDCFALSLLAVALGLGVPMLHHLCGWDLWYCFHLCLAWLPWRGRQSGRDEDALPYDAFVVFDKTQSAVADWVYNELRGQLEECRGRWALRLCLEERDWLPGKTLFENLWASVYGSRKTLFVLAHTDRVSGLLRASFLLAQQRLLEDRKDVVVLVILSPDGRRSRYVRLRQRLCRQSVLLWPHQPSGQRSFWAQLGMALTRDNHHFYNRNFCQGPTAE
Method in brief: as §1

[3] = biological target: T3, human TLR8 (Homo sapiens, UniProt Q9NR97); assay: TLR8 inhibition reporter assay (HEK-Blue, SEAP); conditions: HEK-Blue cells overexpressing human TLR8, R848 15.9 μM, 22 hour incubation
T3 construct: host or cells: HEK-Blue cells
T3 sequence (Q9NR97 27-1041): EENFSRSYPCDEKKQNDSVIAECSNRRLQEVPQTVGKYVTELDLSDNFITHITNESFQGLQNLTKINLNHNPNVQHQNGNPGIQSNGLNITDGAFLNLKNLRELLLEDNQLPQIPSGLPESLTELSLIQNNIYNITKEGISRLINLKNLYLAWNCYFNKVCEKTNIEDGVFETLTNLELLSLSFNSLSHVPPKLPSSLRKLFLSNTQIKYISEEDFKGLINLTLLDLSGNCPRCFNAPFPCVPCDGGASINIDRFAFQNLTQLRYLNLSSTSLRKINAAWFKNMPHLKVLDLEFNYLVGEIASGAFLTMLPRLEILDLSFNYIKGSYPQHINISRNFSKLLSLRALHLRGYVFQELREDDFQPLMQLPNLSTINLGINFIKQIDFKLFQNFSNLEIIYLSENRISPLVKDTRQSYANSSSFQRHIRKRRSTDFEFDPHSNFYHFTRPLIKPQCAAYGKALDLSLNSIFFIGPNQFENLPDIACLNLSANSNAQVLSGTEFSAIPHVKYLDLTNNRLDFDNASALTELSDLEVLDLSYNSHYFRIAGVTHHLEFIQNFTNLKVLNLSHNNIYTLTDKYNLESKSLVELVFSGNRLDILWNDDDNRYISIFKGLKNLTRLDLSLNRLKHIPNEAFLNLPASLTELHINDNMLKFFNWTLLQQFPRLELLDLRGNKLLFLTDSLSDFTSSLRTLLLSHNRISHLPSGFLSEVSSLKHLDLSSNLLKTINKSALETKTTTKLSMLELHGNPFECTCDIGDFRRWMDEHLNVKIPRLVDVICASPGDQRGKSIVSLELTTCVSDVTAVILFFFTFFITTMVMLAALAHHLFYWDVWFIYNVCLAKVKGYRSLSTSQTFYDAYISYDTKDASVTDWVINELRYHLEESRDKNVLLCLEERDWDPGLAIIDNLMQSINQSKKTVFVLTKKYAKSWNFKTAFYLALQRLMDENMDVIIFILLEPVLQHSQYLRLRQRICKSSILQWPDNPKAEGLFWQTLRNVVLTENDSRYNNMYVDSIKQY
Method in brief: as §1

Compound	IC50 [1]	IC50 [2]	IC50 [3]
Cc1cc(-c2[nH]c3ccc(C4CCNCC4)cc3c2C(C)C)cn2c(C)nnc12 [Example 6, 6-(3-isopropyl-5-(piperidin-4-yl)-1H-indol-2-yl)-3,8-dimethyl-[1,2,4]triazolo[4,3-a]pyridine]	5.2 nM	486 nM	18.9 nM
Cc1c(-c2[nH]c3ccc(C4CC(C)N(CCS(C)(=O)=O)C(C)C4)cc3c2C(C)C)cn2cnnc2c1C (single isomer, unassigned) [Example 111, 6-(5-(2,6-dimethyl-1-(2-(methylsulfonyl)ethyl)piperidin-4-yl)-3-isopropyl-1H-indol-2-yl)-7,8-dimethyl-[1,2,4]triazolo[4,3-a]pyridine]	23.9 nM	19200 nM	113 nM
Cc1c(-c2[nH]c3ccc(C4C[C@H]5CC[C@@H](C4)N5)cc3c2C(C)C)cn2cnnc2c1C (single isomer, unassigned) [Example 116, 6-(5-(8-azabicyclo[3.2.1]octan-3-yl)-3-isopropyl-1H-indol-2-yl)-7,8-dimethyl-[1,2,4]triazolo[4,3-a]pyridine]	9.9 nM	1110 nM	102 nM
COc1cc(-c2[nH]c3ccc(C4CCN(C5CCOC5)CC4)cc3c2C(C)C)cn2cnnc12 (stereo not drawn) [Example 94, 6-(3-isopropyl-5-(1-(tetrahydrofuran-3-yl)piperidin-4-yl)-1H-indol-2-yl)-8-methoxy-[1,2,4]triazolo[4,3-a]pyridine]	0.6 nM	914 nM	11.9 nM
Cc1nnc2ccc(-c3[nH]c4ccc(C5CCNCC5)cc4c3C(C)C)cn12 [Example 3, 6-(3-isopropyl-5-(piperidin-4-yl)-1H-indol-2-yl)-3-methyl-[1,2,4]triazolo[4,3-a]pyridine]	27.1 nM	340 nM	40.7 nM

The next lines start with the values.

IC50 [1]	IC50 [2]	IC50 [3]	Compound
1.9 nM	99 nM	19.5 nM	COc1cc(-c2[nH]c3ccc(C4CCN(CC(=O)N(C)C)CC4)cc3c2C(C)C)cn2cnnc12 [Example 54, 2-(4-(3-isopropyl-2-(8-methoxy-[1,2,4]triazolo[4,3-a]pyridin-6-yl)-1H-indol-5-yl)piperidin-1-yl)-N,N-dimethylacetamide]
17.3 nM	1500 nM	245 nM	COc1cc(-c2[nH]c3ccc(C4CCN(CC5(C)COC5)CC4)cc3c2C(C)C)cn2cnnc12 [Example 90, 6-(3-isopropyl-5-(1-((3-methyloxetan-3-yl)methyl)piperidin-4-yl)-1H-indol-2-yl)-8-methoxy-[1,2,4]triazolo[4,3-a]pyridine]
32.5 nM	3750 nM	6 nM	Cc1cc(-c2[nH]c3ccc(C4CCN(CC(=O)N(C)C)CC4)cc3c2C(C)C)c(C)n2cnnc12 [Example 42, 2-(4-(2-(5,8-dimethyl-[1,2,4]triazolo[4,3-a]pyridin-6-yl)-3-isopropyl-1H-indol-5-yl)piperidin-1-yl)-N,N-dimethylacetamide]
1.5 nM	957 nM	31.1 nM	Cc1c(-c2[nH]c3ccc(C4CCN(CC(=O)N(C)C)CC4)cc3c2C(C)C)cn2cnnc2c1Cl [Example 49, 2-(4-(2-(8-chloro-7-methyl-[1,2,4]triazolo[4,3-a]pyridin-6-yl)-3-isopropyl-1H-indol-5-yl)piperidin-1-yl)-N,N-dimethylacetamide]
3.9 nM	4670 nM	10.1 nM	Cc1cc(-c2[nH]c3ccc(C4CCN(Cc5ncn(C)n5)CC4)cc3c2C(C)C)cn2cnnc12 [Example 21, 6-(3-isopropyl-5-(1-((1-methyl-1H-1,2,4-triazol-3-yl)methyl)piperidin-4-yl)-1H-indol-2-yl)-8-methyl-[1,2,4]triazolo[4,3-a]pyridine]
1.5 nM	1090 nM	57 nM	Cc1c(-c2[nH]c3ccc(C4CCN(CC#N)CC4)cc3c2C(C)C)cn2cnnc2c1Cl [Example 50, 2-(4-(2-(8-chloro-7-methyl-[1,2,4]triazolo[4,3-a]pyridin-6-yl)-3-isopropyl-1H-indol-5-yl)piperidin-1-yl)acetonitrile]
2.1 nM	8910 nM	8.6 nM	Cc1c(-c2[nH]c3ccc(C4CCN(CCS(C)(=O)=O)CC4)cc3c2C(C)C)cn2cnnc2c1Cl [Example 46, 8-chloro-6-(3-isopropyl-5-(1-(2-(methylsulfonyl)ethyl)piperidin-4-yl)-1H-indol-2-yl)-7-methyl-[1,2,4]triazolo[4,3-a]pyridine]
3.9 nM	5460 nM	8.2 nM	Cc1c(-c2[nH]c3ccc(C4CCN(C5CCOC5)CC4)cc3c2C(C)C)cn2cnnc2c1C (single isomer, unassigned) [Example 102, 6-(3-isopropyl-5-(1-(tetrahydrofuran-3-yl)piperidin-4-yl)-1H-indol-2-yl)-7,8-dimethyl-[1,2,4]triazolo[4,3-a]pyridine]
